These results are taken from patent US9809545B2, “Factor XIa inhibitors” (Merck Sharp & Dohme Corp., priority 2013, dated 2017).

The structures appear in SMILES notation.

For this experiment, the target named is purified human Factor XIa (Homo sapiens (Human), UniProt P03951). In words: Factor XIa Assay. In kind it is biochemical. The following applies: purified human Factor XIa 40 pM; substrate Z-Gly-Pro-Arg-AFC 100 μM; 50 mM HEPES pH 7.4; read-out: hFXIa Ki.
Sequence of purified human Factor XIa (P03951 388-625): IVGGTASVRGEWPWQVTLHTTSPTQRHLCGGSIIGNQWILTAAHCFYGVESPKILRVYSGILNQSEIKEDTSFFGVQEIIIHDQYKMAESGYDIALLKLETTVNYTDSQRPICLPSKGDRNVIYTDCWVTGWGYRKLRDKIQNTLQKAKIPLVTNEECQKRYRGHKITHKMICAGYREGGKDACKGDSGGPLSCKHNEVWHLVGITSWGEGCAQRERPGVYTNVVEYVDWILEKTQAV
Sequence of purified human Factor XIa (P03951 19-387 partner): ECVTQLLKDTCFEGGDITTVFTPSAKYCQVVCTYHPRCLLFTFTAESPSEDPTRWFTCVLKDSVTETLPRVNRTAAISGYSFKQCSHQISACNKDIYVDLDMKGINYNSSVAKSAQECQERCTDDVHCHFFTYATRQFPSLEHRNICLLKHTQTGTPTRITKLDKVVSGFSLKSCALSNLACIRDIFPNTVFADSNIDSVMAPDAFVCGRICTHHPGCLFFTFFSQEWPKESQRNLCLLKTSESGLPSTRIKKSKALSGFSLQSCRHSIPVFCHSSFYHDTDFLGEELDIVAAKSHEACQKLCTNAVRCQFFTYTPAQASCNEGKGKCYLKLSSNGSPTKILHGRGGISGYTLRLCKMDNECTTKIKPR
Experimental: The rate of hydrolysis of the chromogenic or fluorogenic substrate by the relevant serine protease was measured both in the absence and presence of compounds of the present invention. Assays were conducted at room temperature or at 37° C. […] A decrease in the rate of fluorescence change in the presence of inhibitor is indicative of enzyme inhibition. […] The results of this assay are expressed as the inhibitory constant, Ki.
Factor XIa determinations were made in 50 mM HEPES buffer at pH 7.4 containing 150 mM NaCl, 5 mM CaCl2, and 0.1% PEG 8000 (polyethylene glycol; JT Baker or Fisher Scientific). Determinations were made using purified human Factor XIa at a final concentration of 40 pM (Sekisui Diagnostics) and the synthetic substrate, Z-Gly-Pro-Arg-AFC, TFA salt (Sigma #C0980) at a concentration of 100 μM.
Activity assays were performed by diluting a stock solution of substrate at least tenfold to a final concentration ≦0.1 Km into a solution containing enzyme or enzyme equilibrated with inhibitor. Times required to achieve equilibration between enzyme and inhibitor were determined in control experiments. Initial velocities of product formation in the absence (Vo) or presence of inhibitor (Vi) were measured. Assuming competitive inhibition, and that unity is negligible compared Km/[S], [I]/e, and [I]/e (where [S], [I], and e respectively represent the total concentrations, of substrate, inhibitor and enzyme), the equilibrium constant (Ki) for dissociation of the inhibitor from the enzyme can be obtained from the dependence of Vo/Vi on [I] shown in the following equation.
On to `O=C(O)c1ccc(NC(=O)[C@H](Cc2ccccc2)n2ccc(-c3cc(Cl)ccc3-n3cnnn3)cc2=O)cc1` [Example 1Ef, (S)-4-(2-(4-(5-chloro-2-(1H-tetrazol-1-yl)phenyl)-2-oxopyridin-1(2H)-yl)-3-phenylpropanamido)benzoic acid], for which the Ki is under 5 nM. With `O=C(C(Cc1ccccc1)n1ccc(-c2cc(Cl)ccc2[N+](=O)[O-])cc1=O)N1CCC(N2CC[C@@H](O)C2)CC1` (stereo partly drawn) [Example 1Aw, 4-(5-chloro-2-nitrophenyl)-1-(1-(4-((R)-3-hydroxypyrrolidin-1-yl)piperidin-1-yl)-1-oxo-3-phenylpropan-2-yl)pyridin-2(1H)-one] the figure was over 10000 nM; with `O=C(O)c1ccc(NC(=O)[C@@H](Cc2ccccc2)n2ccc(-c3cc(Cl)ccc3-n3cnnn3)cc2=O)cc1` [Example 1Ff, (R)-4-(2-(4-(5-chloro-2-(1H-tetrazol-1-yl)phenyl)-2-oxopyridin-1(2H)-yl)-3-phenylpropanamido)benzoic acid], 6 nM.

In the case of `N=C(N)c1ccc(-c2ccn(C(Cc3ccccc3)C(=O)Nc3ccc(C(=O)O)cc3)c(=O)c2)cc1` (centres unmarked) [Example 2d, 4-(2-(4-(4-carbamimidoylphenyl)-2-oxopyridin-1(2H)-yl)-3-phenylpropanamido)benzoic acid], the Ki stood at 370 nM.

For `O=C(O)c1ccc2[nH]c([C@H](Cc3ccccc3)n3ccc(-c4cc(Cl)ccc4-n4cnnn4)cc3=O)nc2c1` [Example 3g, (S)-2-(1-(4-(5-chloro-2-(1H-tetrazol-1-yl)phenyl)-2-oxopyridin-1(2H)-yl)-2-phenylethyl)-1H-benzo[d]imidazole-5-carboxylic acid], the Ki was under 5 nM. `O=C(O)c1ccc2[nH]c([C@H](Cc3ccc(F)cc3)n3ccc(-c4cc(Cl)ccc4-n4cnnn4)cc3=O)nc2c1` [Example 3Bd, (S)-2-(1-(4-(5-chloro-2-(1H-tetrazol-1-yl)phenyl)-2-oxopyridin-1(2H)-yl)-2-(4-fluorophenyl)ethyl)-1H-benzo[d]imidazole-5-carboxylic acid]: the Ki was under 5 nM. With `O=c1cc(-c2cc(Cl)ccc2-n2cnnn2)ccn1C(Cc1ccc(F)cc1)c1nc(-c2ccc(F)cc2)c[nH]1` (centres unmarked) [Example 4Af, 4-(5-chloro-2-(1H-tetrazol-1-yl)phenyl)-1-(2-(4-fluorophenyl)-1-(4-(4-fluorophenyl)-1H-imidazol-2-yl)ethyl)pyridin-2(1H)-one] the figure was 154 nM; with `COC(=O)Nc1ccc(CNC(=O)C(Cc2ccccc2)n2ccc(-c3cc(Cl)ccc3[N+](=O)[O-])cc2=O)cc1` (centres unmarked) [Example 1Al, methyl (4-((2-(4-(5-chloro-2-nitrophenyl)-2-oxopyridin-1(2H)-yl)-3-phenylpropanamido)methyl)phenyl)carbamate], 340 nM. As for `O=C(O)c1ccc(NC(=O)C(Cc2ccccc2)n2ccc(-c3cnccc3Cl)cc2=O)cc1` (centres unmarked) [Example 2Af, 4-(2-(4-chloro-2′-oxo-[3,4′-bipyridin]-1′(2′H)-yl)-3-phenylpropanamido)benzoic acid], the Ki worked out at 7750 nM. With `CCOC(=O)Nc1ccc(NC(=O)C(Cc2ccccc2)n2ccc(-c3cc(Cl)ccc3[N+](=O)[O-])cc2=O)cc1` (centres unmarked) [Example 1Ag, ethyl (4-(2-(4-(5-chloro-2-nitrophenyl)-2-oxopyridin-1(2H)-yl)-3-phenylpropanamido)phenyl)carbamate] the figure was 400 nM; with `O=C(O)c1ccc(NC(=O)[C@H](Cc2ccc(F)cc2)n2ccc(-c3cc(Cl)ccc3-n3cnnn3)cc2=O)cc1` [Example 1Ea, (S)-4-(2-(4-(5-chloro-2-(1H-tetrazol-1-yl)phenyl)-2-oxopyridin-1(2H)-yl)-3-(4-fluorophenyl)propanamido)benzoic acid], 6 nM. With `O=c1cc(-c2cc(Cl)ccc2-n2cnnn2)ccn1C(Cc1ccccc1)c1nc(-c2cccnc2)c[nH]1` (centres unmarked) [Example 4Aa, 4-(5-chloro-2-(1H-tetrazol-1-yl)phenyl)-1-(2-phenyl-1-(4-(pyridin-3-yl)-1H-imidazol-2-yl)ethyl)pyridin-2(1H)-one] the figure was under 5 nM; with `O=c1cc(-c2cc(Cl)ccc2-n2cnnn2)ccn1[C@@H](Cc1ccc(F)cc1)c1nc2cc(P(=O)(O)O)ccc2[nH]1` [Example 5b, (S)-(2-(1-(4-(5-chloro-2-(1H-tetrazol-1-yl)phenyl)-2-oxopyridin-1(2H)-yl)-2-(4-fluorophenyl)ethyl)-1H-benzo[d]imidazol-5-yl)phosphonic acid], under 5 nM; with `N#Cc1ccc(-c2cnc([C@@H](Cc3ccc(F)cc3)n3ccc(-c4cc(Cl)ccc4-n4cnnn4)cc3=O)[nH]2)cc1` [Example 4Cl, (R)-4-(2-(1-(4-(5-chloro-2-(1H-tetrazol-1-yl)phenyl)-2-oxopyridin-1(2H)-yl)-2-(4-fluorophenyl)ethyl)-1H-imidazol-5-yl)benzonitrile], under 5 nM.
